{"source": "the supplement of paper PMC10307832", "assay_in_all_cases": "relative viability (nuclei count vs DMSO), 5 days (fraction); higher = more cells survive", "key": {"[1]": {"compound": "COc1cc2nccc(Oc3ccc(NC(=O)C4(C(=O)Nc5ccc(F)cc5)CC4)cc3)c2cc1OC [Cabozantinib] + N=C(N)NC(=N)NCCc1ccccc1 [Phenformin] (partner 250 µM)", "method_in_brief": "(§1)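 Lung cancer cell lines were seeded in 1536-well plates and dosed by pin tool the next day, with either a single drug or a fixed anchor-drug dose combined with five library-drug doses (not always all listed) spaced in √10 steps. Five days later, one step fixed the cells and stained their nuclei (final 0.05% Triton X-100, 1% formaldehyde, 1 ug/ml Hoechst), and nuclei were counted on 4× images. Relative viability is the nuclei count in treated wells divided by the count in vehicle wells, and each value is the median of duplicate plates.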"}, "[2]": {"compound": "O[C@@H](COc1cccc2ncccc12)CN1CCN([C@@H]2c3ccccc3[C@@H]3[C@H](c4ccccc42)C3(F)F)CC1 [Zosuquidar] + CS(=O)(=O)N1CCN(Cc2cc3nc(-c4cccc5[nH]ncc45)nc(N4CCOCC4)c3s2)CC1 [Pictilisib] (partner 1 µM)", "method_in_brief": "as §1"}, "[3]": {"compound": "COc1cc2nccc(Oc3ccc(NC(=O)C4(C(=O)Nc5ccc(F)cc5)CC4)cc3)c2cc1OC [Cabozantinib] + CC(C)C[C@H](NC(=O)[C@H](Cc1ccccc1)NC(=O)c1cnccn1)B(O)O [Bortezomib] (partner 0.002 µM)", "method_in_brief": "as §1"}, "[4]": {"compound": "C1=CC(=CC=C1NC(=S)NNC2=C(C=C(C=C2[N+](=O)[O-])C(F)(F)F)[N+](=O)[O-])F [Kobe2602] + N=C(N)NC(=N)NCCc1ccccc1 [Phenformin] (partner 250 µM)", "method_in_brief": "as §1"}}}
{"cell line": "UMC-11", "values": [{"measurement": "relative viability", "setting": "[1]; first compound 0.02 µM", "result": 0.309}, {"measurement": "relative viability", "setting": "[1]; first compound 0.06325 µM", "result": 0.35}, {"measurement": "relative viability", "setting": "[1]; first compound 0.2 µM", "result": 0.335}, {"measurement": "relative viability", "setting": "[1]; first compound 0.6325 µM", "result": 0.32}, {"measurement": "relative viability", "setting": "[1]; first compound 2 µM", "result": 0.331}, {"measurement": "relative viability", "setting": "[2]; first compound 0.01 µM", "result": 0.663}, {"measurement": "relative viability", "setting": "[2]; first compound 0.03162 µM", "result": 0.92}, {"measurement": "relative viability", "setting": "[2]; first compound 0.1 µM", "result": 0.707}, {"measurement": "relative viability", "setting": "[2]; first compound 0.3162 µM", "result": 0.881}, {"measurement": "relative viability", "setting": "[2]; first compound 1 µM", "result": 0.777}, {"measurement": "relative viability", "setting": "[3]; first compound 0.02 µM", "result": 0.669}, {"measurement": "relative viability", "setting": "[3]; first compound 0.06325 µM", "result": 0.921}, {"measurement": "relative viability", "setting": "[3]; first compound 0.2 µM", "result": 0.709}, {"measurement": "relative viability", "setting": "[3]; first compound 0.6325 µM", "result": 0.649}, {"measurement": "relative viability", "setting": "[3]; first compound 2 µM", "result": 0.815}, {"measurement": "relative viability", "setting": "[4]; first compound 0.2 µM", "result": 0.358}, {"measurement": "relative viability", "setting": "[4]; first compound 0.6325 µM", "result": 0.336}, {"measurement": "relative viability", "setting": "[4]; first compound 2 µM", "result": 0.334}, {"measurement": "relative viability", "setting": "[4]; first compound 6.325 µM", "result": 0.335}, {"measurement": "relative viability", "setting": "[4]; first compound 20 µM", "result": 0.306}]}
